In patent US20140294729A1, “METHODS FOR IDENTIFICATION AND USE OF AGENTS TARGETING CANCER STEM CELLS” (Whitehead Institute for Biomedical Research, priority 2008, published 2014):
Entries after “also recorded” stand apart in the source; their conditions may differ.

Key:
Assay type in all cases: cell-based, human
HMLE-Twist cells = assay: Dose-response viability of HMLEshCntrl vs HMLE-Twist cells; settings: EMT induced by Twist, FIG. 4B
Experimental: (§1) FIG. 4A depicts dose response curves of HMLEshCntrl (A, light gray curve) and HMLEshEcad (A, dark gray curve) cells treated with the 8 compounds identified during the initial screen. 1000 cells of each line were seeded onto 384 well plates and treated with 8 different concentrations of compounds within a 2.5 log range. The cell viability after 3 day treatment was measured by Cell-Titer-Glo. […] FIG. 4B depicts dose response curves of HMLEshCntrl (curve with square data points) and HMLE-Twist (curve with triangular data points) cells treated with the same compounds as in (A). Note that selectivity of Salinomycin, Abamectin, Etoposide and Nigericin (Top, Left-to-Right) is retained even though a different method of EMT induction is used. […] 1 Day after seeding DMSO, Salinomycin (1.25 or 5 μM) or Abamectin (0.25 or 1.25 μM) was added at the indicated concentration. As the GFP vector contains a Blasticidin resistance gene, we used Blasticidin treatment as a positive control for the expansion of GFP-expressing control HMLE cells. After 3 day incubation the mix population of cells were analyzed by flow cytometry and the percentage of GFP-positive cells were determined. […] FIG. 4D depicts dose response curves of transformed HMLERshCntrl (light gray line) and HMLERshEcad (dark gray lines) cells treated with Salinomycin and Abamectin. Dotted line denotes the 50% fraction surviving.
(§2) Individual compounds were purchased from Sigma and dissolved in DMSO with the exception of nigericin which was dissolved in 100% ethanol. Activity of the compounds were quantified by generating dose-response curves for HMLE-shCntrl, HMLE-shEcad and HMLE-Twist under the same cell density and culture conditions described for the initial screen, using the 384-well plate based system.

HMLEshEcad cells [1] = assay: High-throughput chemical screen for selective toxicity, HMLEshEcad vs HMLEshCntrl (ATP luminescence viability); settings: for most compounds 10 uM, 3 days, duplicate
Experimental: We screened compounds for cytotoxicity against both HMLEshEcad and control HMLEshCntrl cells. Cells were seeded in 384-well plates, allowed to grow for one day, treated with compound and assayed for cell viability after three days using a luminescence assay; compounds were screened in duplicate for each cell line (FIG. 3A; See Example 3). We screened a collection of ˜16,000 compounds, including many with known bioactivity, natural extracts, modulators of histone deacetylases, and several diverse commercial libraries.
We developed conditions to use an ATP-based luminescence viability assay with 384-well plates in high throughput screening (see Example 3 for Methods). We screened a total of 16,000 compounds as part of our screen. […]
Using the measurements from the plate-normalized DMSO control wells, we constructed the distribution of luminescence intensities for each cell line in the absence of compound (FIG. 3A). […]
Information about the general automated HTS protocol is available online at broad.harvard.edu/chembio/index.html. […] For most compounds the final concentration in each well was calculated to be 10 uM.
The screen was performed in duplicate. […] The luminescent signal from each plate was detected using an automated plate reader (Perkin-Elmer Envision 1; Wellesley, Mass.). […]

HMLEshEcad cells [2] = assay: Dose-response viability of HMLEshCntrl vs HMLEshEcad cells (validation of hits, 384-well, Cell-Titer-Glo); settings: FIG. 4A; for selective toxicity towards HMLEshEcad cells relative to HMLEshCntrl cells: dose response on retesting
Experimental: as §1
We pursued 8 of the 32 compounds for further study and evaluated their effects across a range of doses.
For each of these compounds, we evaluated the effect on cell viability across a series of doses for sibling cell lines either induced into or not induced into EMT.
Information about the general automated HTS protocol is available online at broad.harvard.edu/chembio/index.html. The assay was initiated by plating 40 μL of medium containing 1000 cells/well into white 384-well opaque-bottom plates (Nunc, Rochester, N.Y.) using an automated plate filler (Bio-Tek μFiller; Winsooki, Vt.) and allowing the cells to adhere for 24 hours. 100 nL of compound stock solutions in dmso was transferred from stock plates into the 384-well assay plates using an automated pin-based compound transfer robot (CyBio CyBi-Well vario; Woburn, Mass.). For most compounds the final concentration in each well was calculated to be 10 uM.
The screen was performed in duplicate. For negative controls, entire dmso-treated control plates were employed, in addition to dmso-only control wells that were incorporated into each compound assay plate. The cells were assayed for luciferase activity with the addition 20 ul of CellTiter-Glo Luminescent Cell Viability Assay solution (Promega). The luminescent signal from each plate was detected using an automated plate reader (Perkin-Elmer Envision 1; Wellesley, Mass.).
as §2

Row | SMILES | selectivity for HMLE-Twist cells vs HMLEshCntrl; dose-response curves compared with HMLEshEcad (HMLE-Twist cells) | specific toxicity towards HMLEshEcad (siEcad) line in the primary screen (HMLEshEcad cells [1]) | IC50 fold lower for HMLEshEcad cells vs HMLEshCntrl cells (HMLEshEcad cells [2]; 3 day treatment, 8 concentrations) | selective toxicity towards HMLEshEcad cells relative to HMLEshCntrl cells (HMLEshEcad cells [2]) | selective toxicity towards HMLEshEcad cells relative to HMLEshCntrl cells (HMLEshEcad cells [2]; listed as Etoposide)
1 | COc1cc([C@@H]2c3cc4c(cc3[C@@H](O[C@@H]3O[C@@H]5CO[C@@H](C)O[C@H]5[C@H](O)[C@H]3O)[C@H]3COC(=O)[C@H]23)OCO4)cc(OC)c1O [etoposide] | is retained | did score positively | ~10 fold | moderate to strong selectivity; also recorded: strong specificity | selective toxicity
2 | CN(Cc1cnc2nc(N)nc(N)c2n1)c1ccc(C(=O)N[C@@H](CCC(=O)O)C(=O)O)cc1 [methotrexate] | – | did score positively | – | – | –
